Paper PMC5563081, “Modulating Protein-Protein Interactions of the Mitotic Polo-like Kinases to Target Mutant KRAS” (Cell Chemical Biology, 2017)
Where two headings read alike, the source gives them in different places.

What was measured:
[1] = test system: murine pancreatic organoids KRAS WT p53 MUT; assay: Viability of pancreatic organoids (CellTitre Glo 3D), KRAS WT; type: cell-based; settings: Mus musculus, read-out: Mean GI50
Experimental: Organoid cultures were prepared from the pancreas of LSL-Trp53^R172H/+, Pdx-1-Cre (for Kras WT organoids) or LSL-Trp53^R172H/+, LSL-Kras^G12D/+, Pdx-1-Cre (for Kras^G12D organoids KPC3760 and KPC26684) strains ([Hingorani et al., 2005]). Pancreatic ducts were manually picked after tissue mincing and overnight enzymatic digestion with 0.012% (w/v) collagenase XI (Sigma) and 0.012% (w/v) dispase (GIBCO) in DMEM media containing 1% FBS (GIBCO), before seeding in growth-factor-reduced (GFR) Matrigel (BD) ([Boj et al., 2015]).
Pancreatic organoids were extracted and cultured as detailed above ([Boj et al., 2015]). In brief, pancreatic organoids were seeded at 600 cells per well in a 96 well plate and allowed to grow for 7 days with media replenishment on the 3rd day. Full-grown organoids were then treated with compounds for 72h and viability determined using CellTitre Glo 3D assay (Promega). For viability assays with c-MET siRNA, cells were reverse transfected in a 6 cm dish using Dharmafect 1 (GE Dharmacon) per manufacturer’s instructions. On the following day, cells were trypsinised and plated onto 96 well plates or 6 well plates. The 96 well plates were treated with a dose range of compounds or DMSO, and viability was determined via SRB colorimetric assay. Cells in the 6 well plates were collected at the end of experiment to corroborate knockdown of c-MET by Western blotting.

HeLa cells = assay: Mitotic index assay in HeLa cells; type: cell-based, human; settings: for EC50: Homo sapiens
Experimental: Cells were plated at 10 000/well in 96-well plates and incubated overnight. The following day compound stocks in DMSO were diluted in medium then added to cells with a maximum final DMSO concentration on cells of 0.2%. […] Cells were permeabilised with 0.1% Triton X-100 then incubated with anti-phospho-histone H3 (Ser10) antibody (Abcam ab5176). The cells were washed with PBS then incubated with AlexaFluor 488 labelled goat anti-rabbit IgG (Invitrogen A11034) in the presence of 4ug/ml Hoechst 33342 (Invitrogen H3570). Cells were washed in PBS then imaged on an Arrayscan VTi HCS instrument (Thermo Fisher) using the Target Activation V4 Bioapplication. A user-defined threshold was applied to identify mitotic cells based on the intensity of phospho-histone H3 staining.

[2] = test system: kinase catalytic domains of PLK1, PLK2, PLK3, PLK4 and 51 other protein kinases; assay: DiscoverX KINOMEscan panel of 55 kinases (statements in words); type: binding, human; settings: cut-off <35% of control
Experimental: A panel of 55 proteins (comprising 51 human kinases structurally or functionally related to the PLKs, plus the kinase catalytic domains of PLK1, PLK2, PLK3 and PLK4) were selected for testing by DiscoverX using the KINOMEscan assay platform. Compounds were supplied as 40x DMSO stocks and were tested at a final concentration of 50μM for Poloppin and 5μM for Poloppin-II. Binding interactions were reported as percentage of control where lower numbers indicate stronger binding. A cut-off of <35% was applied to report significant binding.

[3] = target: T1, NanoLuc-PLK1 fusion protein (Homo sapiens, UniProt P53350); assay: NanoLuc thermal shift assay; type: cell-based; settings: compound at 100 μM
T1 construct: NanoLuc fused to the N-termini of full-length human PLK1, PLK2, PLK3, PLK4 or p38α MAPK; expressed in transfected cells; host or cells: HeLa, transient, digitonin-permeabilised
Experimental: HeLa cells were transfected with plasmids encoding NanoLuc fused to the N-termini of full-length human PLK1, PLK2, PLK3, PLK4 or p38α MAPK. Twenty-four h after transfection, the thermal stability of the fusion proteins was tested using a modified version of the assay protocol supplied by Promega. Briefly, cells were harvested by tyrpsinisation and centrifugation, counted, and resuspended to 200,000 cells/ml in 3mls of serum-free OptiMEM media. Cells were then permeabilised using with 50ug/ml digitonin in DMSO for 5 min and incubated with test compounds at 100uM, plus protease inhibitor cocktail (Promega G6521), in a final concentration of 5% DMSO for 1 h at 37°C. After incubation, 100 μl/well of cells were aliquoted into a 96-well, thin-walled PCR plate and then heated for 3 minutes using a pre-warmed MJ Tetrad DNA Engine set to run a temperature gradient of 42 to 66°C. The plates were then cooled to room temperature for 10 min, and then 80μl of each sample was transferred to a white-walled 96-well Nunc plate before NanoBRET™ NanoGlo Substrate diluted in Opti-MEM was added. NanoLuc enzyme activity was read out within 10 min using a BMG Clariostar plate reader.
Nanoluciferase enzyme activity of PLK1- or PLK4-Nanoluc fusion protein was analysed using GraphPad Prism. Data were normalised as follows: (treatment A RLU value at X°C temp/treatment A RLU value at 42°C temp) x 100. Using the Boltzmann sigmoidal equation, a curve was then fitted to the normalised data. From this non-linear fit, a V50 value was generated, which in this context represents the aggregation onset temperature (Tagg), at which 50% of the PLK1- or PLK4-Nanoluc fusion protein has aggregated.

[4] = HeLa, Figure 5A, read-out: MI EC50 (cellular assay for mitotic arrest)

T1 sequence (P53350 whole entry, the tested form may be a part): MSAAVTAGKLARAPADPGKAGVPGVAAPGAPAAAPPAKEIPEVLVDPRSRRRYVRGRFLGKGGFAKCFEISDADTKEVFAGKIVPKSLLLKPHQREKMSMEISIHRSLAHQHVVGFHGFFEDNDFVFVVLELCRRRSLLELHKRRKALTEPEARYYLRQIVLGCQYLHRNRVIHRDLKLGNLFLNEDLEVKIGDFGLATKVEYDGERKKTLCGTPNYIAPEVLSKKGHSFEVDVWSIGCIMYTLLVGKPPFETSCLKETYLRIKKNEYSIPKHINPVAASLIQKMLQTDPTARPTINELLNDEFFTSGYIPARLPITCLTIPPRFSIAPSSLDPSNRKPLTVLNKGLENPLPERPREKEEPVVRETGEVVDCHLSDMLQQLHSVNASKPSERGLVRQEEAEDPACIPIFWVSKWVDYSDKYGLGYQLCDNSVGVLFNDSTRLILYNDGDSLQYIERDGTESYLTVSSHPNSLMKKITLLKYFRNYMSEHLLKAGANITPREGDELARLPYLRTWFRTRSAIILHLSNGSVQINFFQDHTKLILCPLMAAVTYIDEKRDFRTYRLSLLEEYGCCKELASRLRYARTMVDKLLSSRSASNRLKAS

SMILES | GI50 ([1]; organoids KRAS WT p53 MUT, n=2) | EC50 (HeLa cells; [4]) | EC50 (HeLa cells; HeLa cells, Figure 5B, read-out: half maximal effective concentration, cellular assay for mitotic arrest) | binding to the kinase catalytic domains of PLK1–4, or to 51 other related kinases ([2]; Poloppin-II at 5 μM) | thermal stability of NanoLuc-PLK1 [3] | GI50 [1] | EC50, mitotic index assay (HeLa cells; HeLa cells treated for 16 hr, Figure 5B) | binding to 51 other protein kinases ([2]; Poloppin at 50μM) | binding to the kinase catalytic domains of PLK1, PLK2, PLK3, PLK4 ([2]; Poloppin at 50μM)
CN(C)CCNC(=O)c1ccc(-c2ccc(-c3ccc(Cl)cc3)n2-c2ccccc2C(F)(F)F)cc1 [Poloppin-II] | 102 µM | 0.069 µM | 0.061 µM | no binding | engages | – | – | – | –
O=C(O)CCc1ccc(-c2ccc(Br)cc2)n1-c1ccccc1C(F)(F)F [Poloppin] | – | 14.1 µM | – | – | increases the thermal stability | 119 µM | 14.6 µM | No significant binding | does not bind
